According to publication PMC4601051, “Discovery of Indoline-2-carboxamide Derivatives as a New Class of Brain-Penetrant Inhibitors of Trypanosoma brucei” (Journal of Medicinal Chemistry, 2015):
Where two headings read alike, the source gives them in different places.

Assays:
[1] = system: bloodstream form T. brucei brucei; experiment: T. b. brucei whole cell parasite (trypanosome growth) assay; type: cell-based, Trypanosoma brucei brucei; details: for EC50: 69 h + 4 h resazurin; for loss in potency: T. b. brucei EC50, compared to 1 (parent)
Experimental: This was conducted as previously described.[27] Cell culture plates were stamped with 1 μL of an appropriate stock concentration of test compound, followed by addition of 200 μL of trypanosome culture (HMI9-T, 10% FCS) to each well at a density of 2000 cells per well (except column 12 receiving media only). […] Potency was carried out using 10-point dose–response curves.

in vitro = details: human
Experimental: Proliferation assays using bloodstream form T. brucei brucei and human MRC-5 fibroblasts were conducted using a modification of the cell viability assay as previously reported.[27],[39]
MRC-5 cells (2000 cells per well) were seeded in 200 μL of DMEM, 10% FCS, and allowed to adhere overnight. One microliter of test compound was added to each well on the day of assay initiation.
The final DMSO level was 0.5% in all cases.

[2] = Microsomal intrinsic clearance (Clint), mouse; type: in vitro ADME; details: mouse liver microsomes, 0.5 μM compound
Experimental: (§1) Each test compound (0.5 μM) was incubated with pooled female CDI mouse liver microsomes, pooled male Sprague–Dawley rat microsomes, or pooled mixed gender human liver microsomes (Tebu-Bio, UK; 0.5 mg/mL 50 mM potassium phosphate buffer, pH 7.4) and the reaction started with addition of excess NADPH (8 mg/mL, 50 mM potassium phosphate buffer, pH 7.4). Immediately, at time zero, then at 3, 6, 9, 15, and 30 min, an aliquot (50 μL) of the incubation mixture was removed and mixed with acetonitrile (100 μL) to stop the reaction. Internal standard was added to all samples, and the samples were centrifuged at 1825g for 10 min to sediment precipitated protein. The plates were then sealed prior to UPLC/MS/MS analysis using a Quattro Premier XE (Waters Corporation, USA).
(§2) XLfit (IDBS, UK) was used to calculate the exponential decay and consequently the rate constant (k) from the ratio of peak area of test compound to internal standard at each time point.

[3] = Microsomal intrinsic clearance (Clint), rat; type: in vitro ADME; details: rat liver microsomes, 0.5 μM compound
Experimental: as §1, §2

[4] = Microsomal intrinsic clearance (Clint), human; type: in vitro ADME; details: human liver microsomes, 0.5 μM compound
Experimental: as §1, §2

[5] = Trypanosoma brucei, mean of two or more determinations, read-out: T. b. brucei EC50
[6] = mean of two or more determinations, read-out: T. b. brucei EC50

SMILES | EC50 [1, 5] | EC50 at 69 h (in vitro; MRC-5 fibroblasts) | mouse microsomal intrinsic clearance [2] | also measured
CCOc1ccc(OCC(=O)N2c3ccccc3CC2C(=O)NC)cc1 (centres unmarked) [Compound 17] | 310 nM | > 50000 nM | – | –
CNC(=O)C1Cc2ccccc2N1C(=O)COc1ccc2ccccc2c1 (centres unmarked) [Compound 18] | 2900 nM | > 50000 nM | – | –
CNC(=O)C1Cc2ccccc2N1C(=O)COc1cccc(OC)c1 (centres unmarked) [Compound 19] | 450 nM | > 50000 nM | – | –
CNC(=O)C1Cc2ccccc2N1C(=O)Cc1cccs1 (centres unmarked) [Compound 20] | 660 nM | > 50000 nM | – | –
CNC(=O)C1Cc2ccccc2N1C(=O)Cc1ccccc1 (centres unmarked) [Compound 21] | 220 nM | > 15000 nM | – | –
CCNC(=O)C1Cc2ccccc2N1C(=O)COc1cccc(C)c1 (centres unmarked) [Compound 22] | 650 nM | > 50000 nM | – | –
CCNC(=O)C1Cc2ccccc2N1C(=O)CCC1CCCC1 (centres unmarked) [Compound 23] | 990 nM | > 50000 nM | – | –
Cc1cccc(OCC(=O)N2c3ccccc3CC2C(N)=O)c1 (centres unmarked) [Compound 24] | 13000 nM | > 50000 nM | – | –
CC(C)Oc1ccc(C(=O)N2c3ccccc3CC2C(N)=O)cc1 (centres unmarked) [Compound 25] | > 50000 nM | > 50000 nM | – | –
CNC(=O)C1Cc2ccccc2N1C(=O)COCc1ccccc1 (centres unmarked) [Compound 28] | 1900 nM | > 50000 nM | – | loss in potency [1]: ~70 fold
CNC(=O)C1Cc2ccccc2N1C(=O)COc1ccc(Cl)c(F)c1 (centres unmarked) [Compound 29] | 30 nM | > 50000 nM | 4.4 mL min^–1 g^–1 | microsomal intrinsic clearance, rat [3]: 13.5 mL min^–1 g^–1; microsomal intrinsic clearance, human [4]: 3.3 mL min^–1 g^–1
CNC(=O)C1Cc2ccccc2N1C(=O)COc1ccc(Cl)c(Cl)c1 (centres unmarked) [Compound 30] | 400 nM | > 50000 nM | 9.1 mL min^–1 g^–1 | loss in potency [1]: 15 fold
CNC(=O)C1Cc2ccccc2N1C(=O)COc1ccccc1 (centres unmarked) [Compound 31] | 40 nM | > 50000 nM | 6.9 mL min^–1 g^–1 | microsomal intrinsic clearance, rat [3]: 9.0 mL min^–1 g^–1; microsomal intrinsic clearance, human [4]: 1.4 mL min^–1 g^–1
CNC(=O)C1Cc2ccccc2N1C(=O)COc1ccc(C)cc1 (centres unmarked) [Compound 34] | 30 nM | > 50000 nM | 6.5 mL min^–1 g^–1 | microsomal intrinsic clearance, rat [3]: 47 mL min^–1 g^–1; microsomal intrinsic clearance, human [4]: 2.4 mL min^–1 g^–1
CNC(=O)[C@H]1Cc2ccccc2N1C(=O)COc1ccc(F)cc1 [Compound 36] | 40 nM | > 50000 nM | 1.2 mL min^–1 g^–1 | microsomal intrinsic clearance, rat [3]: 4.9 mL min^–1 g^–1; microsomal intrinsic clearance, human [4]: 1.3 mL min^–1 g^–1
CNC(=O)[C@H]1Cc2ccccc2N1C(=O)COc1ccc(F)c(F)c1 [Compound 37] | 30 nM | > 50000 nM | 3.2 mL min^–1 g^–1 | –
[2H]c1c([2H])c([2H])c(OCC(=O)N2c3ccccc3C[C@@H]2C(=O)NC)c([2H])c1[2H] [Compound 38] | 50 nM | > 50000 nM | – | –
CNC(=O)C1Cc2ccccc2N1C(=O)Cc1cccc2ccccc12 (centres unmarked) [Compound 39] | – | – | 28 mL min^–1 g^–1 | T. b. brucei potency in words [1]: complete loss of potency; EC50 ([1]; Trypanosoma brucei, read-out: T. b. brucei EC50, mean of two or more determinations): 50000 nM; EC50 at 69 h (in vitro): > 50000 nM
CNC(=O)C1Cc2ccccc2N1C(=O)Cc1ccc(Cl)cc1 (centres unmarked) [Compound 40] | 80 nM | > 50000 nM | 4.4 mL min^–1 g^–1 | improvement in activity ([1]; T. b. brucei EC50, compared to 21): approximately 3 fold
CNC(=O)C1Cc2ccccc2N1C(=O)Cc1ccc(C(C)C)cc1 (centres unmarked) [Compound 41] | 770 nM | > 50000 nM | 35 mL min^–1 g^–1 | –

SMILES | EC50 [1, 5] | EC50 at 69 h (in vitro; MRC-5 fibroblasts) | mouse microsomal intrinsic clearance [2] | also measured
CNC(=O)C1Cc2ccccc2N1C(=O)Cc1ccc(C(F)(F)F)cc1 (centres unmarked) [Compound 42] | 100 nM | > 50000 nM | 3.0 mL min^–1 g^–1 | EC50 [1, 6]: 110 nM
CNC(=O)C1Cc2ccccc2N1C(=O)Cc1ccc(F)cc1 (centres unmarked) [Compound 43] | 100 nM | > 50000 nM | 0.8 mL min^–1 g^–1 | EC50 [1, 6]: 110 nM
CNC(=O)C1Cc2ccccc2N1C(=O)Cc1ccc(F)cc1F (centres unmarked) [Compound 44] | 2300 nM | > 50000 nM | 0.5 mL min^–1 g^–1 | –
CNC(=O)[C@H]1Cc2ccccc2N1C(=O)Cc1ccc(Cl)c(F)c1 [Compound 45] | 80 nM | > 50000 nM | 8.4 mL min^–1 g^–1 | –
CNC(=O)C1Cc2ccccc2N1C(=O)Cc1ccc(F)c(F)c1 (centres unmarked) [Compound 46] | 110 nM | > 50000 nM | 1.9 mL min^–1 g^–1 | –
CN(C)C(=O)C1Cc2ccccc2N1C(=O)COc1ccc(Cl)cc1 (centres unmarked) [Compound 48] | 5400 nM | > 50000 nM | – | loss in potency [1]: 200 fold
CCNC(=O)C1Cc2ccccc2N1C(=O)COc1ccc(Cl)cc1 (centres unmarked) [Compound 49] | 90 nM | > 50000 nM | 6.2 mL min^–1 g^–1 | –
CCCCNC(=O)C1Cc2ccccc2N1C(=O)COc1ccc(Cl)cc1 (centres unmarked) [Compound 50] | 19000 nM | > 50000 nM | 27 mL min^–1 g^–1 | loss in potency [1]: ~700 fold
O=C(NC1CC1)C1Cc2ccccc2N1C(=O)COc1ccc(Cl)cc1 (centres unmarked) [Compound 51] | 410 nM | > 50000 nM | 5.5 mL min^–1 g^–1 | loss in potency [1]: ~14 fold
CNC(=O)C1Cc2cc(F)ccc2N1C(=O)COc1ccc(Cl)cc1 (centres unmarked) [Compound 54] | 60 nM | > 50000 nM | 2.8 mL min^–1 g^–1 | microsomal intrinsic clearance, rat [3]: 5.3 mL min^–1 g^–1; microsomal intrinsic clearance, human [4]: 1.6 mL min^–1 g^–1
CNC(=O)[C@H]1Cc2cc(F)ccc2N1C(=O)COc1ccc(F)cc1 [Compound 56] | 40 nM | > 50000 nM | – | –
CNC(=O)C1Cc2cc(F)c(F)cc2N1C(=O)COc1ccc(F)cc1 (centres unmarked) [Compound 57] | 90 nM | > 50000 nM | 2.0 mL min^–1 g^–1 | microsomal intrinsic clearance, rat [3]: 2.8 mL min^–1 g^–1; microsomal intrinsic clearance, human [4]: 1.9 mL min^–1 g^–1
CNC(=O)C1Cc2cc(F)cc(F)c2N1C(=O)COc1ccc(F)cc1 (centres unmarked) [Compound 58] | 80 nM | > 50000 nM | 2.9 mL min^–1 g^–1 | –
CNC(=O)C1Cc2c(cc(F)c(F)c2F)N1C(=O)COc1ccc(Cl)cc1 (centres unmarked) [Compound 59] | 70 nM | > 50000 nM | 3.7 mL min^–1 g^–1 | microsomal intrinsic clearance, rat [3]: 6.7 mL min^–1 g^–1; microsomal intrinsic clearance, human [4]: 4.3 mL min^–1 g^–1
CNC(=O)C1Cc2cc(Br)ccc2N1C(=O)COc1ccc(F)cc1 (centres unmarked) [Compound 60] | 80 nM | > 50000 nM | 4.6 mL min^–1 g^–1 | –
CNC(=O)C1Cc2cc(-c3ccccc3)ccc2N1C(=O)COc1ccc(F)cc1 (centres unmarked) [Compound 61] | 240 nM | > 50000 nM | – | loss in potency [1]: ~10 fold; microsomal intrinsic clearance, rat [3]: 25 mL min^–1 g^–1
CNC(=O)C1Cc2cc(-c3ccncc3)ccc2N1C(=O)COc1ccc(F)cc1 (centres unmarked) [Compound 62] | 440 nM | > 50000 nM | – | loss in potency [1]: ~10 fold
CNC(=O)C1N(C(=O)COc2ccc(Cl)cc2)c2ccccc2C1(C)C (centres unmarked) [Compound 63] | 920 nM | > 50000 nM | 14 mL min^–1 g^–1 | loss in potency [1]: ~34 fold
CNC(=O)C1Cc2ccccc2CN1C(=O)COc1ccc(F)cc1 (centres unmarked) [Compound 66] | 37000 nM | > 50000 nM | – | –
